Assay results taken from PubChem BioAssay (NCI).
Several values for one entry are separate records, joined by “and”; a condition that tells them apart may be missing. Equal values may be shown once.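 Each compound was tested at five concentrations against cells in 96-well plates for 48 hours. GI50 is the concentration that inhibits growth by half. TGI denotes the concentration required for complete inhibition of growth.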

Legend:
Assay in all cases: DTP human tumour cell line panel, 48 h
HCT-116 colon = tested on: HCT-116 colon
HS 578T breast = tested on: HS 578T breast
MDA-MB-231 breast = tested on: MDA-MB-231 breast
MDA-MB-435 = tested on: MDA-MB-435
OVCAR-3 ovarian = tested on: OVCAR-3 ovarian
OVCAR-4 ovarian = tested on: OVCAR-4 ovarian
SK-MEL-28 melanoma = tested on: SK-MEL-28 melanoma
SNB-75 CNS = tested on: SNB-75 CNS
TK-10 renal = tested on: TK-10 renal
UACC-257 melanoma = tested on: UACC-257 melanoma

SMILES: Cc1nc(C(N)=S)sc1C(=O)C/C(=N/N)C(=O)Nc1cccc(Cl)c1C
- TGI (HCT-116 colon): > 100 µM
- TGI (HS 578T breast): > 100 µM
- TGI (MDA-MB-231 breast): > 100 µM
- TGI (MDA-MB-435): > 100 µM
- TGI (OVCAR-3 ovarian): > 100 µM
- TGI (OVCAR-4 ovarian): > 100 µM
- TGI (SK-MEL-28 melanoma): > 100 µM
- TGI (SNB-75 CNS): > 100 µM
- TGI (TK-10 renal): > 100 µM
- TGI (UACC-257 melanoma): > 100 µM

SMILES: COc1cc2nc(-c3ccc(C(F)(F)F)cc3)cc(OCCCN3CCCCC3)c2cc1OC
- GI50 (HCT-116 colon): 0.429 µM
- TGI (HCT-116 colon): 11.6 µM
- GI50 (HS 578T breast): 2.15 µM
- TGI (HS 578T breast): 9.94 µM
- GI50 (MDA-MB-231 breast): 0.536 µM
- TGI (MDA-MB-231 breast): 4.04 µM
- GI50 (MDA-MB-435): 1.23 µM
- TGI (MDA-MB-435): 7.08 µM
- GI50 (OVCAR-3 ovarian): 2.44 µM
- TGI (OVCAR-3 ovarian): 15.4 µM
- GI50 (OVCAR-4 ovarian): 2.91 µM
- TGI (OVCAR-4 ovarian): 31.3 µM
- GI50 (SK-MEL-28 melanoma): 1.26 µM
- TGI (SK-MEL-28 melanoma): 2.95 µM
- GI50 (SNB-75 CNS): 1.96 µM
- TGI (SNB-75 CNS): 6.86 µM
- GI50 (TK-10 renal): 7.81 µM
- TGI (TK-10 renal): 24.5 µM
- GI50 (UACC-257 melanoma): 1.7 µM
- TGI (UACC-257 melanoma): 5.27 µM

SMILES: Cc1c2ccc(N(C)c3ccnc(Nc4cccc(S(N)(=O)=O)c4)n3)cc2nn1C
- GI50 (HCT-116 colon): 8.23 µM
- TGI (HCT-116 colon): > 25 µM
- GI50 (HS 578T breast): 6.8 µM
- TGI (HS 578T breast): > 25 µM
- GI50 (MDA-MB-231 breast): 8.47 µM
- TGI (MDA-MB-231 breast): > 25 µM
- GI50 (MDA-MB-435): 6.74 µM
- TGI (MDA-MB-435): > 22.3 µM
- GI50 (OVCAR-3 ovarian): 14.2 µM
- TGI (OVCAR-3 ovarian): > 25 µM
- GI50 (OVCAR-4 ovarian): 6.23 µM
- TGI (OVCAR-4 ovarian): > 25 µM
- GI50 (SK-MEL-28 melanoma): 9.95 µM
- TGI (SK-MEL-28 melanoma): > 25 µM
- GI50 (SNB-75 CNS): 4.33 µM
- TGI (SNB-75 CNS): > 22.9 µM
- GI50 (TK-10 renal): 10.5 µM
- TGI (TK-10 renal): > 25 µM
- GI50 (UACC-257 melanoma): 12.2 µM
- TGI (UACC-257 melanoma): > 25 µM

SMILES: Cc1ccc(NC(=O)Cn2c(Br)nc3c2c(=O)n(C)c(=O)n3C)cc1
- GI50 (HCT-116 colon): 2.43 µM
- TGI (HCT-116 colon): 8.02 µM
- GI50 (HS 578T breast): 3.43 µM
- TGI (HS 578T breast): 14.9 µM
- GI50 (MDA-MB-231 breast): 2.44 µM
- TGI (MDA-MB-231 breast): 6.42 µM
- GI50 (MDA-MB-435): 9.32 µM
- TGI (MDA-MB-435): 21.2 µM
- GI50 (OVCAR-3 ovarian): 2.31 µM
- TGI (OVCAR-3 ovarian): 5.35 µM
- GI50 (OVCAR-4 ovarian): 2.1 µM
- TGI (OVCAR-4 ovarian): 4.57 µM
- GI50 (SK-MEL-28 melanoma): 11.4 µM
- TGI (SK-MEL-28 melanoma): 23.5 µM
- GI50 (SNB-75 CNS): 1.43 µM
- TGI (SNB-75 CNS): 3.95 µM
- GI50 (TK-10 renal): 3.2 µM
- TGI (TK-10 renal): 9.93 µM
- GI50 (UACC-257 melanoma): 13.9 µM
- TGI (UACC-257 melanoma): 28.8 µM

SMILES: CC[C@@]1(O)C(=O)OCc2c1cc1n(c2=O)Cc2cc3cc(N)ccc3nc2-1
- TGI (HCT-116 colon): 1.65 µM
- GI50 (HS 578T breast): 0.532 µM and 2.41 µM
- GI50 (MDA-MB-231 breast): 0.199 µM and 0.345 µM
- TGI (MDA-MB-231 breast): 3.11 µM
- GI50 (MDA-MB-435): 0.12 µM and 0.0188 µM
- TGI (MDA-MB-435): 0.663 µM and 0.133 µM
- GI50 (OVCAR-3 ovarian): 0.0847 µM and 0.0653 µM
- TGI (OVCAR-3 ovarian): 0.608 µM and 0.346 µM
- GI50 (OVCAR-4 ovarian): 0.048 µM and 0.169 µM
- TGI (OVCAR-4 ovarian): 0.233 µM
- GI50 (SK-MEL-28 melanoma): 0.183 µM and 0.0563 µM
- TGI (SK-MEL-28 melanoma): 4.58 µM and 2.2 µM
- TGI (SNB-75 CNS): 0.364 µM and 0.0446 µM
- GI50 (TK-10 renal): 0.385 µM and 0.169 µM
- GI50 (UACC-257 melanoma): 0.0441 µM and 0.0423 µM
- TGI (UACC-257 melanoma): 0.642 µM and 0.375 µM

SMILES: COC(=O)C1=C(C(=O)OC)SC(=C(Cl)C(=S)Sc2ccccc2N)S1
- GI50 (HCT-116 colon): 13.2 µM
- TGI (HCT-116 colon): 27.7 µM
- GI50 (HS 578T breast): 19 µM
- TGI (HS 578T breast): 66.2 µM
- GI50 (MDA-MB-231 breast): 16.6 µM
- TGI (MDA-MB-231 breast): 42.9 µM
- GI50 (MDA-MB-435): 29.3 µM
- TGI (MDA-MB-435): > 100 µM
- GI50 (OVCAR-3 ovarian): 28.1 µM
- TGI (OVCAR-3 ovarian): 64.6 µM
- GI50 (OVCAR-4 ovarian): 80.8 µM
- TGI (OVCAR-4 ovarian): > 100 µM
- GI50 (SK-MEL-28 melanoma): > 100 µM
- TGI (SK-MEL-28 melanoma): > 100 µM
- GI50 (SNB-75 CNS): 32.8 µM
- TGI (SNB-75 CNS): > 100 µM
- GI50 (TK-10 renal): 30.9 µM
- TGI (TK-10 renal): 64.3 µM
- GI50 (UACC-257 melanoma): 20.3 µM
- TGI (UACC-257 melanoma): 55.7 µM

SMILES: Cc1cc(-c2nnc3n2CCCCC3)c(C)n1-c1ccc(Cl)c(Cl)c1
- GI50 (HCT-116 colon): 12.8 µM
- TGI (HCT-116 colon): 28.7 µM
- GI50 (HS 578T breast): 16.9 µM
- TGI (HS 578T breast): 47 µM
- GI50 (MDA-MB-231 breast): 15.2 µM
- TGI (MDA-MB-231 breast): 33.5 µM
- GI50 (MDA-MB-435): 10.3 µM
- TGI (MDA-MB-435): 26.9 µM
- GI50 (OVCAR-3 ovarian): 10.2 µM
- TGI (OVCAR-3 ovarian): 23.7 µM
- GI50 (OVCAR-4 ovarian): 8.4 µM
- TGI (OVCAR-4 ovarian): 57.5 µM
- GI50 (SK-MEL-28 melanoma): 10.7 µM
- TGI (SK-MEL-28 melanoma): 23.2 µM
- GI50 (SNB-75 CNS): 13.4 µM
- TGI (SNB-75 CNS): 27.7 µM
- GI50 (TK-10 renal): 20.1 µM
- TGI (TK-10 renal): 65.3 µM
- GI50 (UACC-257 melanoma): 12.7 µM
- TGI (UACC-257 melanoma): 32.3 µM

SMILES: O=S1(=O)c2ccccc2NC(=S)CC1c1ccccc1 (stereo unspecified)
- TGI (HCT-116 colon): > 100 µM
- TGI (HS 578T breast): > 100 µM
- TGI (MDA-MB-231 breast): > 100 µM
- TGI (MDA-MB-435): > 100 µM
- TGI (OVCAR-3 ovarian): > 100 µM
- TGI (OVCAR-4 ovarian): > 100 µM
- TGI (SK-MEL-28 melanoma): > 100 µM
- TGI (SNB-75 CNS): > 100 µM
- TGI (TK-10 renal): > 100 µM
- TGI (UACC-257 melanoma): > 100 µM

SMILES: CCC(c1cccc(O)c1)C(CC)c1cccc(O)c1 (stereo unspecified)
- GI50 (HCT-116 colon): 3.66 µM
- TGI (HCT-116 colon): 14.5 µM
- GI50 (HS 578T breast): 1.96 µM
- TGI (HS 578T breast): 9.77 µM
- GI50 (MDA-MB-231 breast): 6.21 µM
- TGI (MDA-MB-231 breast): 19.6 µM
- GI50 (MDA-MB-435): 2.15 µM
- TGI (MDA-MB-435): 6.44 µM
- GI50 (OVCAR-3 ovarian): 6.2 µM
- TGI (OVCAR-3 ovarian): 19 µM
- GI50 (OVCAR-4 ovarian): 1.21 µM
- TGI (OVCAR-4 ovarian): 14.3 µM
- GI50 (SK-MEL-28 melanoma): 4.9 µM
- TGI (SK-MEL-28 melanoma): 18.2 µM
- GI50 (SNB-75 CNS): 0.973 µM
- TGI (SNB-75 CNS): 11.7 µM
- GI50 (TK-10 renal): 2.93 µM
- TGI (TK-10 renal): 20.4 µM
- GI50 (UACC-257 melanoma): 11.5 µM
- TGI (UACC-257 melanoma): 26.4 µM

SMILES: C[C@]12CC[C@@H]3c4ccc(O)cc4C(O)C[C@H]3[C@@H]1CCC2=O (stereo partly specified)
- GI50 (HCT-116 colon): > 100 µM
- TGI (HCT-116 colon): > 100 µM
- GI50 (HS 578T breast): > 100 µM
- TGI (HS 578T breast): > 100 µM
- GI50 (MDA-MB-231 breast): > 100 µM
- TGI (MDA-MB-231 breast): > 100 µM
- GI50 (MDA-MB-435): > 100 µM
- TGI (MDA-MB-435): > 100 µM
- GI50 (OVCAR-3 ovarian): > 100 µM
- TGI (OVCAR-3 ovarian): > 100 µM
- GI50 (OVCAR-4 ovarian): 61.1 µM
- TGI (OVCAR-4 ovarian): > 100 µM
- GI50 (SK-MEL-28 melanoma): > 100 µM
- TGI (SK-MEL-28 melanoma): > 100 µM
- GI50 (SNB-75 CNS): 26.9 µM
- TGI (SNB-75 CNS): > 100 µM
- GI50 (TK-10 renal): > 100 µM
- TGI (TK-10 renal): > 100 µM
- GI50 (UACC-257 melanoma): > 100 µM
- TGI (UACC-257 melanoma): > 100 µM
